Values joined by “and” are separate entries in the source; they are usually repeats but may differ in a detail not shown here. Identical values can stand only once. Toxic doses and inconclusive results are not listed. Rule as the data show it: active = T/C of 150% or more; inactive = T/C below 125%.
Tested on: L1210 leukemia ip in BDF1 mice, survival T/C
Experiment: NCI In Vivo Anticancer Drug Screen. Data for tumor model L1210 Leukemia (intraperitoneal) in B6D2F1 (BDF1) mice
Conditions: endpoint: mean survival time, higher = longer survival
Procedure, shortened: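 Tumor was transplanted into mice, which were then dosed with test compound or vehicle alone. Survival was recorded for each group, and the treated figure was expressed relative to the control figure.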

[1] = dose: 100.0 mg/kg/injection, schedule: Q04DX003 (ip), vehicle: saline with Tween-80
[2] = dose: 200.0 mg/kg/injection, schedule: Q04DX003 (ip), vehicle: saline with Tween-80
[3] = dose: 400.0 mg/kg/injection, schedule: Q04DX003 (ip), vehicle: saline with Tween-80
[4] = dose: 100.0 mg/kg/injection, schedule: Q04DX002 (ip), vehicle: Klucel (hydroxypropylcellulose) (HPC)
[5] = dose: 200.0 mg/kg/injection, schedule: Q04DX002 (ip), vehicle: Klucel (hydroxypropylcellulose) (HPC)
[6] = dose: 100.0 mg/kg/injection, schedule: Q01DX001 (ip), vehicle: carboxymethylcellulose (CMC)
[7] = dose: 200.0 mg/kg/injection, schedule: Q01DX001 (ip), vehicle: carboxymethylcellulose (CMC)
[8] = dose: 400.0 mg/kg/injection, schedule: Q01DX001 (ip), vehicle: carboxymethylcellulose (CMC)
[9] = dose: 25.0 mg/kg/injection, schedule: Q01DX009 (ip), vehicle: saline
[10] = dose: 100.0 mg/kg/injection, schedule: Q01DX009 (ip), vehicle: saline
[11] = dose: 400.0 mg/kg/injection, schedule: Q04DX002 (ip), vehicle: Klucel (hydroxypropylcellulose) (HPC)
[12] = dose: 100.0 mg/kg/injection, schedule: Q01DX001 (ip), vehicle: saline
[13] = dose: 200.0 mg/kg/injection, schedule: Q01DX001 (ip), vehicle: saline
[14] = dose: 400.0 mg/kg/injection, schedule: Q01DX001 (ip), vehicle: saline
[15] = dose: 500.0 mg/kg/injection, schedule: Q01DX Z (ip), vehicle: saline
[16] = dose: 25.0 mg/kg/injection, schedule: Q04DX002 (ip), vehicle: Klucel (hydroxypropylcellulose) (HPC)
[17] = dose: 50.0 mg/kg/injection, schedule: Q04DX002 (ip), vehicle: Klucel (hydroxypropylcellulose) (HPC)

Measured: T/C

CC(=O)OCC1OC(OC(C)C)[CH]([Hg][S]Cc2ccccc2)C(OC(C)=O)C1OC(C)=O (stereo unspecified)
inactive: dose: 0.5 mg/kg/injection, schedule: Q01DX015 (ip), vehicle: carboxymethylcellulose (CMC) 102 % of control | dose: 1.0 mg/kg/injection, schedule: Q01DX015 (ip), vehicle: carboxymethylcellulose (CMC) 98 % of control | dose: 2.0 mg/kg/injection, schedule: Q01DX015 (ip), vehicle: carboxymethylcellulose (CMC) 104 % of control | dose: 4.0 mg/kg/injection, schedule: Q01DX015 (ip), vehicle: carboxymethylcellulose (CMC) 96 % of control and 108 % of control | dose: 8.0 mg/kg/injection, schedule: Q01DX015 (ip), vehicle: carboxymethylcellulose (CMC) 88 % of control

CCNc1nc(N)nc(Cl)c1N
inactive: [1] 107 % of control | [2] 100 % of control | [3] 105 % of control

NNC(=O)CNc1ccccc1Cl
inactive: [4] 112 % of control | [5] 108 % of control

O=C(CN1CCCCC1)N1CCN(C(=O)CN2CCCCC2)CC1
inactive: dose: 44.0 mg/kg/injection, schedule: Q01DX001 (ip), vehicle: carboxymethylcellulose (CMC) 98 % of control and 100 % of control | dose: 50.0 mg/kg/injection, schedule: Q01DX001 (ip), vehicle: carboxymethylcellulose (CMC) 103 % of control | dose: 67.0 mg/kg/injection, schedule: Q01DX001 (ip), vehicle: carboxymethylcellulose (CMC) 87 % of control and 91 % of control | [6] 96 % of control | dose: 150.0 mg/kg/injection, schedule: Q01DX001 (ip), vehicle: carboxymethylcellulose (CMC) 91 % of control | [7] 113 % of control | [8] 103 % of control

Cc1cc(=O)[nH]c2c(O)cc([N+](=O)[O-])cc12
inactive: dose: 50.0 mg/kg/injection, schedule: Q01DX001 (ip), vehicle: Klucel (hydroxypropylcellulose) (HPC) 111 % of control | dose: 100.0 mg/kg/injection, schedule: Q01DX001 (ip), vehicle: Klucel (hydroxypropylcellulose) (HPC) 100 % of control | dose: 200.0 mg/kg/injection, schedule: Q01DX001 (ip), vehicle: Klucel (hydroxypropylcellulose) (HPC) 97 % of control

CCN(C1CCCCC1)C1CCCCC1
inactive: [9] 100 % of control | dose: 50.0 mg/kg/injection, schedule: Q01DX009 (ip), vehicle: saline 98 % of control | [10] 107 % of control

O=S(=O)(Cc1ccccc1)C(Br)Br
inactive: dose: 100.0 mg/kg/injection, schedule: Q01DX001 (ip), vehicle: other 106 % of control | [4] 100 % of control | dose: 200.0 mg/kg/injection, schedule: Q01DX001 (ip), vehicle: other 101 % of control | [5] 97 % of control | dose: 400.0 mg/kg/injection, schedule: Q01DX001 (ip), vehicle: other 101 % of control | [11] 103 % of control

CCCCc1c(N)nc(N)nc1N
inactive: dose: 75.0 mg/kg/injection, schedule: Q01DX001 (ip), vehicle: saline with Tween-80 103 % of control

CC(=O)c1cccc([N+](=O)[O-])c1O
inactive: [12] 95 % of control | [13] 94 % of control | [14] 91 % of control

ClCC1COC(CCc2ccccc2)O1 (stereo unspecified)
inactive: dose: 222.0 mg/kg/injection, schedule: Q01DX Z (ip), vehicle: saline 95 % of control | dose: 333.0 mg/kg/injection, schedule: Q01DX Z (ip), vehicle: saline 95 % of control | [15] 113 % of control

CC(C)CCC(C)O[Si](C)c1ccccc1 (stereo unspecified)
inactive: [1] 97 % of control | [2] 99 % of control | [3] 101 % of control

CCCCCN(CCCCC)C(=O)CCCC
inactive: [6] 115 % of control | dose: 100.0 mg/kg/injection, schedule: Q01DX009 (ip), vehicle: carboxymethylcellulose (CMC) 93 % of control and 97 % of control | dose: 100.0 mg/kg/injection, schedule: Q04DX002 (ip), vehicle: carboxymethylcellulose (CMC) 101 % of control and 105 % of control | dose: 100.0 mg/kg/injection, schedule: Q04DX003 (ip), vehicle: carboxymethylcellulose (CMC) 97 % of control | [7] 101 % of control | dose: 200.0 mg/kg/injection, schedule: Q01DX009 (ip), vehicle: carboxymethylcellulose (CMC) 100 % of control and 102 % of control | dose: 200.0 mg/kg/injection, schedule: Q04DX002 (ip), vehicle: carboxymethylcellulose (CMC) 98 % of control and 103 % of control | dose: 200.0 mg/kg/injection, schedule: Q04DX003 (ip), vehicle: carboxymethylcellulose (CMC) 95 % of control | [8] 100 % of control | dose: 400.0 mg/kg/injection, schedule: Q01DX009 (ip), vehicle: carboxymethylcellulose (CMC) 97 % of control and 86 % of control | dose: 400.0 mg/kg/injection, schedule: Q04DX002 (ip), vehicle: carboxymethylcellulose (CMC) 98 % of control and 87 % of control | dose: 400.0 mg/kg/injection, schedule: Q04DX003 (ip), vehicle: carboxymethylcellulose (CMC) 100 % of control

O=C(Cn1ccc(=O)[nH]c1=O)Nc1nccs1
inactive: dose: 6.25 mg/kg/injection, schedule: Q01DX009 (ip), vehicle: saline 102 % of control | dose: 12.5 mg/kg/injection, schedule: Q01DX009 (ip), vehicle: saline 104 % of control | dose: 12.5 mg/kg/injection, schedule: Q04DX003 (ip), vehicle: saline 122 % of control | [9] 103 % of control | dose: 25.0 mg/kg/injection, schedule: Q04DX003 (ip), vehicle: saline 95 % of control

O=C(Nc1ccc([N+](=O)[O-])cc1)Oc1c(Cl)cc(Cl)c(Cl)c1[N+](=O)[O-]
inactive: [16] 112 % of control | [17] 97 % of control | [4] 94 % of control and 90 % of control

CC(=O)N/N=C(/C)C1CC2CCC1C2 (stereo unspecified)
inactive: [12] 104 % of control | [13] 106 % of control | [14] 112 % of control

CCN(CC)CCOCCO
inactive: dose: 100.0 mg/kg/injection, schedule: Q04DX003 (ip), vehicle: saline 96 % of control | dose: 200.0 mg/kg/injection, schedule: Q04DX003 (ip), vehicle: saline 102 % of control | dose: 400.0 mg/kg/injection, schedule: Q04DX003 (ip), vehicle: saline 109 % of control

O=P(NCCCO)(Oc1ccccc1)N(CCCl)CCCl (stereo unspecified)
inactive: dose: 125.0 mg/kg/injection, schedule: Q01DX Z (ip), vehicle: saline 95 % of control | dose: 250.0 mg/kg/injection, schedule: Q01DX Z (ip), vehicle: saline 102 % of control | [15] 102 % of control

COc1c2ccc(-c3ccccc3)oc-2cc(=O)c1C
inactive: [4] 104 % of control | [5] 96 % of control | [11] 93 % of control

COC1OC(COC(c2ccccc2)(c2ccccc2)c2ccccc2)C(OC)C(OC(C)=O)C1OC(C)=O (stereo unspecified)
inactive: [16] 95 % of control | [17] 95 % of control | [4] 92 % of control | [5] 102 % of control | [11] 90 % of control

CN(C)C=C(S(C)(=O)=O)S(C)(=O)=O
inactive: dose: 75.0 mg/kg/injection, schedule: Q04DX003 (ip), vehicle: saline 97 % of control | [10] 101 % of control | dose: 150.0 mg/kg/injection, schedule: Q04DX003 (ip), vehicle: saline 97 % of control | dose: 200.0 mg/kg/injection, schedule: Q01DX009 (ip), vehicle: saline 109 % of control | dose: 300.0 mg/kg/injection, schedule: Q04DX003 (ip), vehicle: saline 101 % of control | dose: 400.0 mg/kg/injection, schedule: Q01DX009 (ip), vehicle: saline 98 % of control

CSc1ncc2c(Cl)nn(C)c2n1
inactive: dose: 37.5 mg/kg/injection, schedule: Q01DX001 (ip), vehicle: Klucel (hydroxypropylcellulose) (HPC) 94 % of control | dose: 75.0 mg/kg/injection, schedule: Q01DX001 (ip), vehicle: Klucel (hydroxypropylcellulose) (HPC) 92 % of control | dose: 150.0 mg/kg/injection, schedule: Q01DX001 (ip), vehicle: Klucel (hydroxypropylcellulose) (HPC) 90 % of control

Nc1ccc(C(=O)NC(CCC(=O)O)C(=O)O)cc1 (stereo unspecified)
inactive: dose: 100.0 mg/kg/injection, schedule: Q04DX002 (ip), vehicle: saline with Tween-80 92 % of control | dose: 200.0 mg/kg/injection, schedule: Q04DX002 (ip), vehicle: saline with Tween-80 95 % of control | dose: 400.0 mg/kg/injection, schedule: Q04DX002 (ip), vehicle: saline with Tween-80 92 % of control

CCCCC(=O)N/N=C\c1cccc(I)c1
inactive: [6] 87 % of control | [7] 93 % of control | [8] 87 % of control

— PubChem BioAssay AID248 (DTP/NCI, 2004)
